Data reported in PubChem BioAssay (NCI).
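Growth conditions: 96-well plates. Treatment: test compound, 48 hours, 5 concentrations. Analysis: linear interpolation between bracketing concentrations; unreached endpoints set to highest concentration. TGI: concentration producing complete growth inhibition.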

Key:
Assay in all cases: NCI tumour cell line growth inhibition, 48 h
UO-31 renal = test system: UO-31 renal
OVCAR-8 ovarian = test system: OVCAR-8 ovarian
HCT-116 colon = test system: HCT-116 colon
MOLT-4 leukemia = test system: MOLT-4 leukemia
HCC-2998 colon = test system: HCC-2998 colon
CCRF-CEM leukemia = test system: CCRF-CEM leukemia
HS 578T breast = test system: HS 578T breast
TK-10 renal = test system: TK-10 renal
NCI/ADR-RES ovarian = test system: NCI/ADR-RES ovarian
SR leukemia = test system: SR leukemia
OVCAR-5 ovarian = test system: OVCAR-5 ovarian
RXF 393 renal = test system: RXF 393 renal
A549 NSCLC = test system: A549 NSCLC
UACC-62 melanoma = test system: UACC-62 melanoma
IGROV1 ovarian = test system: IGROV1 ovarian
T-47D breast = test system: T-47D breast
NCI-H522 lung = test system: NCI-H522 lung
MDA-MB-435 = test system: MDA-MB-435
COLO 205 colon = test system: COLO 205 colon
SNB-19 CNS = test system: SNB-19 CNS
KM12 colon = test system: KM12 colon
K-562 leukemia = test system: K-562 leukemia
SK-MEL-2 melanoma = test system: SK-MEL-2 melanoma
ACHN renal = test system: ACHN renal
786-0 renal = test system: 786-0 renal
MCF7 breast = test system: MCF7 breast
SW-620 colon = test system: SW-620 colon
SK-MEL-5 melanoma = test system: SK-MEL-5 melanoma
OVCAR-3 ovarian = test system: OVCAR-3 ovarian
HT29 colon = test system: HT29 colon
SF-268 CNS = test system: SF-268 CNS
EKVX NSCLC = test system: EKVX NSCLC
OVCAR-4 ovarian = test system: OVCAR-4 ovarian
NCI-H226 lung = test system: NCI-H226 lung
RPMI-8226 leukemia = test system: RPMI-8226 leukemia
MALME-3M melanoma = test system: MALME-3M melanoma
UACC-257 melanoma = test system: UACC-257 melanoma
NCI-H23 lung = test system: NCI-H23 lung
BT-549 breast = test system: BT-549 breast
SK-OV-3 ovarian = test system: SK-OV-3 ovarian
DU-145 prostate = test system: DU-145 prostate
U251 CNS = test system: U251 CNS
PC-3 prostate = test system: PC-3 prostate
SF-295 CNS = test system: SF-295 CNS
HOP-62 NSCLC = test system: HOP-62 NSCLC
M14 melanoma = test system: M14 melanoma
HCT-15 colon = test system: HCT-15 colon
CAKI-1 renal = test system: CAKI-1 renal
SK-MEL-28 melanoma = test system: SK-MEL-28 melanoma
MDA-N = test system: MDA-N
MDA-MB-231 breast = test system: MDA-MB-231 breast
HOP-92 NSCLC = test system: HOP-92 NSCLC
A498 renal = test system: A498 renal
LOX IMVI melanoma = test system: LOX IMVI melanoma
SNB-75 CNS = test system: SNB-75 CNS
SN12C renal = test system: SN12C renal
HL-60(TB) leukemia = test system: HL-60(TB) leukemia
NCI-H460 lung = test system: NCI-H460 lung
SF-539 CNS = test system: SF-539 CNS

CN1CCCN(C)CCCN(C)CCCN(C)CCC1
TGI (UO-31 renal): > 100 µM | TGI (OVCAR-8 ovarian): > 100 µM | TGI (HCT-116 colon): > 100 µM | TGI (MOLT-4 leukemia): > 100 µM | TGI (HCC-2998 colon): > 100 µM | TGI (CCRF-CEM leukemia): > 100 µM | TGI (HS 578T breast): > 100 µM | TGI (TK-10 renal): > 100 µM | TGI (NCI/ADR-RES ovarian): > 100 µM | TGI (SR leukemia): > 100 µM | TGI (OVCAR-5 ovarian): > 100 µM | TGI (RXF 393 renal): > 100 µM | TGI (A549 NSCLC): > 100 µM | TGI (UACC-62 melanoma): > 100 µM | TGI (IGROV1 ovarian): > 100 µM | TGI (T-47D breast): > 100 µM | TGI (NCI-H522 lung): > 100 µM | TGI (MDA-MB-435): > 100 µM | TGI (COLO 205 colon): > 100 µM | TGI (SNB-19 CNS): > 100 µM | TGI (KM12 colon): > 100 µM | TGI (K-562 leukemia): > 100 µM | TGI (SK-MEL-2 melanoma): > 100 µM | TGI (ACHN renal): > 100 µM | TGI (786-0 renal): > 100 µM | TGI (MCF7 breast): > 100 µM | TGI (SW-620 colon): > 100 µM | TGI (SK-MEL-5 melanoma): > 100 µM | TGI (OVCAR-3 ovarian): > 100 µM | TGI (HT29 colon): > 100 µM | TGI (SF-268 CNS): > 100 µM | TGI (EKVX NSCLC): > 100 µM | TGI (OVCAR-4 ovarian): > 100 µM | TGI (NCI-H226 lung): > 100 µM | TGI (RPMI-8226 leukemia): > 100 µM | TGI (MALME-3M melanoma): > 100 µM | TGI (UACC-257 melanoma): > 100 µM | TGI (NCI-H23 lung): > 100 µM | TGI (BT-549 breast): > 100 µM | TGI (SK-OV-3 ovarian): > 100 µM | TGI (DU-145 prostate): > 100 µM | TGI (U251 CNS): > 100 µM | TGI (PC-3 prostate): > 100 µM | TGI (SF-295 CNS): > 100 µM | TGI (HOP-62 NSCLC): > 100 µM | TGI (M14 melanoma): > 100 µM | TGI (HCT-15 colon): > 100 µM | TGI (CAKI-1 renal): > 100 µM | TGI (SK-MEL-28 melanoma): > 100 µM | TGI (MDA-N): > 100 µM | TGI (MDA-MB-231 breast): > 100 µM

Cc1ccc(N=Nc2c(O)c(C(=O)O)cc3ccccc23)c(S(=O)(=O)O)c1
TGI (HOP-92 NSCLC): > 100 µM | TGI (UO-31 renal): > 100 µM | TGI (OVCAR-8 ovarian): > 100 µM | TGI (HCT-116 colon): > 100 µM | TGI (MOLT-4 leukemia): > 100 µM | TGI (CCRF-CEM leukemia): > 100 µM | TGI (HS 578T breast): > 100 µM | TGI (TK-10 renal): > 100 µM | TGI (NCI/ADR-RES ovarian): > 100 µM | TGI (SR leukemia): > 100 µM | TGI (OVCAR-5 ovarian): > 100 µM | TGI (RXF 393 renal): > 100 µM | TGI (A549 NSCLC): > 100 µM | TGI (UACC-62 melanoma): > 100 µM | TGI (A498 renal): > 100 µM | TGI (IGROV1 ovarian): > 100 µM | TGI (T-47D breast): > 100 µM | TGI (NCI-H522 lung): > 100 µM | TGI (MDA-MB-435): > 100 µM | TGI (LOX IMVI melanoma): > 100 µM | TGI (COLO 205 colon): > 100 µM | TGI (SNB-75 CNS): > 100 µM | TGI (SNB-19 CNS): > 100 µM | TGI (KM12 colon): > 100 µM | TGI (K-562 leukemia): > 100 µM | TGI (SK-MEL-2 melanoma): > 100 µM | TGI (ACHN renal): > 100 µM | TGI (786-0 renal): > 100 µM | TGI (SW-620 colon): > 100 µM | TGI (SK-MEL-5 melanoma): > 100 µM | TGI (OVCAR-3 ovarian): > 100 µM | TGI (HT29 colon): > 100 µM | TGI (SF-268 CNS): > 100 µM | TGI (EKVX NSCLC): > 100 µM | TGI (OVCAR-4 ovarian): > 100 µM | TGI (NCI-H226 lung): > 100 µM | TGI (RPMI-8226 leukemia): > 100 µM | TGI (MALME-3M melanoma): > 100 µM | TGI (UACC-257 melanoma): > 100 µM | TGI (SN12C renal): > 100 µM | TGI (NCI-H23 lung): > 100 µM | TGI (BT-549 breast): > 100 µM | TGI (SK-OV-3 ovarian): > 100 µM | TGI (DU-145 prostate): > 100 µM | TGI (U251 CNS): > 100 µM | TGI (PC-3 prostate): > 100 µM | TGI (SF-295 CNS): > 100 µM | TGI (HOP-62 NSCLC): > 100 µM | TGI (M14 melanoma): > 100 µM | TGI (HCT-15 colon): > 100 µM | TGI (CAKI-1 renal): > 100 µM | TGI (SK-MEL-28 melanoma): > 100 µM | TGI (MDA-N): > 100 µM | TGI (MDA-MB-231 breast): > 100 µM

O=c1cc(NNc2ccc(F)cc2)[nH]c(=O)[nH]1
TGI (UO-31 renal): 31.8 µM | TGI (OVCAR-8 ovarian): 53.3 µM | TGI (HCT-116 colon): 34.1 µM | TGI (MOLT-4 leukemia): 59.3 µM | TGI (HCC-2998 colon): 51.3 µM | TGI (CCRF-CEM leukemia): 74.7 µM | TGI (HS 578T breast): 90.8 µM | TGI (TK-10 renal): 36.8 µM | TGI (NCI/ADR-RES ovarian): 88.7 µM | TGI (SR leukemia): > 100 µM | TGI (OVCAR-5 ovarian): 33.3 µM | TGI (RXF 393 renal): 34.3 µM | TGI (A549 NSCLC): 34.7 µM | TGI (UACC-62 melanoma): 33.5 µM | TGI (A498 renal): > 100 µM | TGI (IGROV1 ovarian): 30.2 µM | TGI (T-47D breast): 71 µM | TGI (LOX IMVI melanoma): > 100 µM | TGI (COLO 205 colon): 30.9 µM | TGI (SNB-75 CNS): 31.1 µM | TGI (SNB-19 CNS): 37.1 µM | TGI (KM12 colon): 24 µM | TGI (K-562 leukemia): 81.2 µM | TGI (SK-MEL-2 melanoma): 45.6 µM | TGI (ACHN renal): 31.7 µM | TGI (786-0 renal): 25.5 µM | TGI (SW-620 colon): 33.1 µM | TGI (SK-MEL-5 melanoma): 67.1 µM | TGI (OVCAR-3 ovarian): 32.7 µM | TGI (HT29 colon): 33.9 µM | TGI (HL-60(TB) leukemia): > 100 µM | TGI (SF-268 CNS): 53.8 µM | TGI (EKVX NSCLC): 32.2 µM | TGI (OVCAR-4 ovarian): 21.4 µM | TGI (NCI-H226 lung): 57.4 µM | TGI (RPMI-8226 leukemia): > 100 µM | TGI (MALME-3M melanoma): 43.8 µM | TGI (UACC-257 melanoma): > 100 µM | TGI (SN12C renal): 37.7 µM | TGI (NCI-H23 lung): 82.7 µM | TGI (BT-549 breast): 26.7 µM | TGI (SK-OV-3 ovarian): > 100 µM | TGI (NCI-H460 lung): 38.7 µM | TGI (DU-145 prostate): > 100 µM | TGI (U251 CNS): 40.8 µM | TGI (PC-3 prostate): 32.5 µM | TGI (SF-295 CNS): > 100 µM | TGI (HOP-62 NSCLC): 32.7 µM | TGI (M14 melanoma): 21 µM | TGI (HCT-15 colon): 31.7 µM | TGI (SF-539 CNS): 44.5 µM | TGI (SK-MEL-28 melanoma): 33.3 µM | TGI (MDA-N): 30.8 µM | TGI (MDA-MB-231 breast): 33.4 µM
